The record followed here is the Bradley open melting point set (2014).

Consider `O=C(O)c1csnn1` [1,2,3-thiadiazole-4-carboxylic acid], for which the melting point (commonly the temperature, or range, at which the solid turns liquid) turned out to be 228 °C.
Next, `C1CC1` [cyclopropane]: -127 °C; `COC(=O)c1ccc(O)cc1` [Methyl 4-hydroxybenzoate]: 131 °C; `COc1ccc(B(O)O)cc1C` [4-methoxy-3-methylbenzeneboronic acid]: 215 °C.
Next, `CC(C)c1ncc([N+](=O)[O-])n1C` [ipronidazole]: 61 °C; `O=C(Cl)CCl` [chloroacetyl chloride]: -22 °C.
Next, `C#CCCCCCCCCC` [1-undecyne]: -25 °C; `O=C(O)C(F)(F)C(F)(F)C(F)(F)C(F)(F)C(F)(F)C(F)(F)C(F)(F)C(F)(F)F` [Heptadecafluorononanoic acid]: 66.5 °C; `Cc1cc(-c2ccccc2)[nH]n1` [3-methyl-5-phenyl-1h-pyrazole]: 126 °C.
For the molecule `CC(=O)c1cccc(O)c1` [3-hydroxyacetophenone], the melting point worked out at 89 °C.
Next, `CC(=O)CCc1oc2ccc(NC(C)=O)cc2c1-c1ccc(C)o1`: 132 °C; `C1=NN=C2CSCC12` (centres undefined) [4,6-dihydro-1H-thieno[3,4-c]pyrazole]: 133 °C; `COc1ccccc1OCC(O)CO` (centres undefined) [3-(2-methoxyphenoxy)-1,2-propanediol]: 81 °C.
Next, `c1ccc2c(c1)ccc1cc3c(ccc4ccccc43)cc12` [1,2,5,6-Dibenzanthracene dibenz[a,h]anthracene]: 266 °C; `CN1CCN(CCCN2c3ccccc3Sc3ccccc32)CC1` [perazine]: 53 °C; `OCc1ccc(I)cc1` [4-iodobenzyl alcohol]: 73 °C.
Next, `COc1ccccc1CC#N` [2-methoxyphenylacetonitrile]: 68 °C; `CC1(C)[C@@H]2CC[C@@]1(C)C(=O)C2=O` [(1R)-camphorquinone]: 200 °C.
The molecule `CS(=O)(=O)c1cccs1` [2-(methylsulfonyl)thiophene] registered a melting point of 48 °C.
